In patent US11731973B2, “Substituted pyrazolo[3,4-d]pyrimidines as mTOR inhibitors” (GALDERMA RESEARCH & DEVELOPMENT, priority 2018, dated 2023):

Tests used:
mTOR = mTOR (Homo sapiens (Human), UniProt P42345); test: Inhibitory activity on mTOR kinase (LANTHASCREEN TR-FRET); assay type: biochemical; conditions: 1 hour reaction at room temperature
mTORC1 = mTORC1 (Homo sapiens (Human), UniProt P42345); test: mTORC1 inhibitory activity: phosphorylation of S6RP in A431 cells (HTRF); assay type: cell-based; conditions: 3 hours at 37° C.
mTORC2 = mTORC2 (Homo sapiens (Human), UniProt P42345); test: mTORC2 inhibitory activity: phosphorylation of AKT in A431 cells (HTRF); assay type: cell-based; conditions: 3 hours at 37° C.
[1] = tested on: patch model of atopic dermatitis; test: Patch model of atopic dermatitis (DERP epicutaneous sensitization) in mice; assay type: in vivo, Balb/c mice; conditions: 0.07% in acetone vehicle, topical
Description: The antagonist (mTOR inhibitor) according to example 31 tested was formulated at 0.07% in an acetone vehicle, applied to the skin of the back of the mouse (10 μl/ear on the two faces) and left for 2 hours before applying the DERP patches. Topical treatments with the antagonist (mTOR inhibitor) or a corticosteroid (betamethasone 17-valerate at 0.01% used as control) were performed only three times in the course of the third and final week of sensitization (on days 44, 47 and 50).
The transepidermal water loss TEWL is measured using a […]® on a control animal. The […]® probe measures the density gradient of water evaporation from the skin indirectly by means of two pairs of sensors (temperature and relative humidity) inside a hollow cylinder. A microprocessor analyzes the values and expresses the evaporation rate in g/h/m2.
The epidermal thickness is measured by histological morphometric analyses on sections 6 μm thick stained with HE using skin samples fixed beforehand with […].
The inflammation score is defined visually as a function of predefined scales of dryness, cutaneous eruption, baldness, excoriation and lichenification. The mean of the five scores attributed to an individual mouse on a given day gives the clinical score attributed on that specific day.
To evaluate the contribution of mTOR to the inflammatory response of atopic dermatitis, the inventors used an atopic dermatitis model described previously based on repeated epicutaneous sensitizations (Spergel et al. JCI 1998; Staumont-Sallé et al. JEM 2015), with Dermatophagoides pteronyssinus (DERP) as antigen. In this model, the skin lesions caused by the atopic dermatitis present inflammation with Th2 dominant characterized by dermal infiltration of CD4+T lymphocytes and of eosinophils accompanied by deposition of eosinophil products and an increase in the cutaneous expression of the Th2 cytokines.
Following the protocol of example 33, the inflammatory response of atopic dermatitis was provoked by epicutaneous sensitization with patches soaked with 100 μg of allergen in sterile saline solution (Dermatophagoides pteronyssinus or DERP) or with a vehicle applied to the abdominal skin 24 hours after shaving and left in place for three periods of one week (with renewal of the patch in the middle of the week), with a 2-week interval between the applications. The presence of the patches and of a transparent occlusive dressing on top prevented the mice from licking, biting and scratching; consequently, the inflammatory response in this model is not due to the itching cycle.
The antagonist according to example 31 (mTOR inhibitor) was formulated at 0.07% in an acetone-based vehicle, applied to the sensitized skin 2 hours before installation of the DERP patches. […]

[2] = days 44, 47 and 50, female Balb/c mice, DERP patches

Compound	Ki (mTOR) [nM]	IC50 (mTORC1) [nM]	IC50 (mTORC2) [nM]	change in epidermal thickness (epidermal acanthosis) [1, 2] [%]	change in inflammatory scores [1, 2]	decrease of the increase in the rate of transepidermal water loss TEWL [1, 2] [%]	effect on the parameters studied (TEWL, epidermal thickness, inflammation score) ([1]; DERP patch model in mice)
CC(C)C[C@H](C)n1nc(-c2cc3nc(N)oc3cc2F)c2c(N)nc(N)nc21 [Example 2, 3-(2-amino-6-fluorobenzoxazol-5-yl)-1-((S)-1,3-dimethylbutyl)-1H-pyrazolo[3,4-d]pyrimidine-4,6-diamine]	1	1.2	2.1	–	–	–	–
CC1(Cn2nc(-c3cc4nc(N)oc4cc3F)c3c(N)nc(N)nc32)CCC1 [Example 4, 3-(2-amino-6-fluorobenzoxazol-5-yl)-1-(1-methylcyclobutylmethyl)-1H-pyrazolo[3,4-d]pyrimidine-4,6-diamine]	–	1.3	3.4	–	–	–	–
CCC(C)(C)Cn1nc(-c2ccc3oc(N)nc3c2)c2c(N)nc(N)nc21 [Example 8, 3-(2-aminobenzoxazol-5-yl)-1-(2,2-dimethylbutyl)-1H-pyrazolo[3,4-d]pyrimidine-4,6-diamine]	0.6	1.2	3	–	–	–	–
CCNc1nc2cc(-c3nn(CC(C)(C)C)c4nc(N)nc(N)c34)ccc2o1 [Example 11, 1-(2,2-dimethylpropyl)-3-(2-ethylaminobenzoxazol-5-yl)-1H-pyrazolo[3,4-d]pyrimidine-4,6-diamine]	0.8	5	5.9	–	–	–	–
C=CC(C)(C)Cn1nc(-c2ccc3oc(N)nc3c2)c2c(N)nc(N)nc21 [Example 12, 3-(2-aminobenzoxazol-5-yl)-1-(2,2-dimethylbut-3-enyl)-1H-pyrazolo[3,4-d]pyrimidine-4,6-diamine]	1.2	1.1	3.7	–	–	–	–
CC(C)(Cn1nc(-c2ccc3oc(N)nc3c2)c2c(N)nc(N)nc21)[C@@H]1CCCO1 [Example 13, (+)-3-(2-aminobenzoxazol-5-yl)-1-((S)-2-methyl-2-tetrahydrofuran-2-ylpropyl)-1H-pyrazolo[3,4-d]pyrimidine-4,6-diamine]	1.2	1.4	4.1	–	–	–	–
C#CC(C)(C)Cn1nc(-c2ccc3oc(N)nc3c2)c2c(N)nc(N)nc21 [Example 14, 3-(2-aminobenzoxazol-5-yl)-1-(2,2-dimethylbut-3-ynyl)-1H-pyrazolo[3,4-d]pyrimidine-4,6-diamine]	1.2	1.2	3.8	–	–	–	–
CC(C)(CO)Cn1nc(-c2ccc3oc(N)nc3c2)c2c(N)nc(N)nc21 [Example 15, 3-[4,6-diamino-3-(2-aminobenzoxazol-5-yl)pyrazolo[3,4-d]pyrimidin-1-yl]-2,2-dimethylpropan-1-ol]	1.5	1.7	7.2	–	–	–	–
CSC(C)(C)Cn1nc(-c2ccc3oc(N)nc3c2)c2c(N)nc(N)nc21 [Example 16, 3-(2-aminobenzoxazol-5-yl)-1-(2-methyl-2-methylsulfanylpropyl)-1H-pyrazolo[3,4-d]pyrimidine-4,6-diamine]	1.7	2.2	10.2	–	–	–	–
CC(C)(C)Cn1nc(-c2ccc3oc(N)nc3c2Cl)c2c(N)nc(N)nc21 [Example 17, 3-(2-amino-4-chlorobenzoxazol-5-yl)-1-(2,2-dimethylpropyl)-1H-pyrazolo[3,4-d]pyrimidine-4,6-diamine]	1.8	1.2	4	–	–	–	–
COc1cc2oc(N)nc2cc1-c1nn(CC(C)(C)C)c2nc(N)nc(N)c12 [Example 18, 3-(2-amino-6-methoxybenzoxazol-5-yl)-1-(2,2-dimethylpropyl)-1H-pyrazolo[3,4-d]pyrimidine-4,6-diamine]	2.1	2.1	4.3	–	–	–	–
CC(C)(C)Cn1nc(-c2cc3cc(O)cnc3[nH]2)c2c(N)nc(N)nc21 [Example 19, 2-[4,6-diamino-1-(2,2-dimethylpropyl)-1H-pyrazolo[3,4-d]pyrimidin-3-yl]-1H-pyrrolo[2,3-b]pyridin-5-ol]	2.3	27.4	65.5	–	–	–	–
CCC(C)(C)Cn1nc(-c2cc3nc(N)oc3cc2OC)c2c(N)nc(N)nc21 [Example 20, 3-(2-amino-6-methoxybenzoxazol-5-yl)-1-(2,2-dimethylbutyl)-1H-pyrazolo[3,4-d]pyrimidine-4,6-diamine]	2.9	2.1	7	–	–	–	–
CC(C)n1nc(-c2ccc3oc(N)nc3c2)c2c(N)nc(N)nc21 [Example 21, 3-(2-aminobenzoxazol-5-yl)-1-isopropyl-1H-pyrazolo[3,4-d]pyrimidine-4,6-diamine]	3.8	3.8	10.7	–	–	–	–
CC(C)n1nc(-c2ccc3oc(N)nc3c2)c2c(Cl)nc(N)nc21 [Example 31, 5-(6-Amino-4-chloro-1-isopropyl-1H-pyrazolo[3,4-d]pyrimidin-3-yl)benzo[d]oxazol-2-amine]	10	8.4	21	−39	−40	−68	reduces all the parameters studied

Further lines, with some results ahead:

Ki (mTOR) [nM]	IC50 (mTORC1) [nM]	IC50 (mTORC2) [nM]	Compound	change in epidermal thickness (epidermal acanthosis) [1, 2] [%]	change in inflammatory scores [1, 2]	decrease of the increase in the rate of transepidermal water loss TEWL [1, 2] [%]	effect on the parameters studied (TEWL, epidermal thickness, inflammation score) ([1]; DERP patch model in mice)
3.9	10.2	26.6	CCC(CC)(Cn1nc(-c2ccc3oc(N)nc3c2)c2c(N)nc(N)nc21)S(C)(=O)=O [Example 22, 3-(2-aminobenzoxazol-5-yl)-1-(2-ethyl-2-methanesulfonylbutyl)-1H-pyrazolo[3,4-d]pyrimidine-4,6-diamine]	–	–	–	–
5.8	2.8	5.9	CC(C)Cn1nc(-c2ccc3oc(N)nc3c2)c2c(Cl)nc(N)nc21 [Example 23, 3-(2-aminobenzoxazol-5-yl)-4-chloro-1-isobutyl-1H-pyrazolo[3,4-d]pyrimidin-6-ylamine]	–	–	–	–
6.1	6.8	15.5	CC(C)n1nc(-c2ccc3oc(N)nc3c2)c2cnc(N)nc21 [Example 24, 3-(2-aminobenzoxazol-5-yl)-1-isopropyl-1H-pyrazolo[3,4-d]pyrimidin-6-ylamine]	–	–	–	–
8.1	4.5	13.1	CC(C)[C@H](C)n1nc(-c2cc3nc(N)oc3cc2Cl)c2c(N)nc(N)nc21 [Example 25, 3-(2-amino-6-chlorobenzoxazol-5-yl)-1-((S)-1,2-dimethylpropyl)-1H-pyrazolo[3,4-d]pyrimidine-4,6-diamine]	–	–	–	–
13.4	29.7	62.2	CNc1nc(N)c2c(-c3ccc4oc(N)nc4c3)nn(C(C)C)c2n1 [Example 26, 3-(2-Aminobenzoxazol-5-yl)-1-isopropyl-N^6-methyl-1H-pyrazolo[3,4-d]pyrimidine-4,6-diamine]	–	–	–	–
14.3	8.1	15.3	Cc1nc(N)nc2c1c(-c1ccc3oc(N)nc3c1)nn2CC(C)(C)C [Example 27, 5-(6-amino-4-methyl-1-neopentyl-1H-pyrazolo[3,4-d]pyrimidin-3-yl)benzo[d]oxazol-2-amine]	–	–	–	–
21	43.8	40.2	CC(C)n1nc(-c2ccc3oc(NC4CC4)nc3c2)c2c(N)nc(N)nc21 [Example 28, 3-(2-cyclopropylaminobenzoxazol-5-yl)-1-isopropyl-1H-pyrazolo[3,4-d]pyrimidine-4,6-diamine]	–	–	–	–
102	234	746	CCC(C)(C)Cn1nc(-c2cc(C)c3oc(N)nc3c2)c2c(N)nc(N)nc21 [Example 29, 3-(2-amino-7-methylbenzoxazol-5-yl)-1-(2,2-dimethylbutyl)-1H-pyrazolo[3,4-d]pyrimidine-4,6-diamine]	–	–	–	–
